Patent publication US20060167096A1, “Livestock products with an increased ppar/rxr heterodimer activator level” (priority 2003, published 2006)
Like-named read-outs stand apart in the source and are kept apart here.

Experiments:
RXR = conditions: cell research; Kitareewan 1996; cited from earlier work
PPAR alpha = biological target: T1, PPAR alpha (Homo sapiens, UniProt Q07869); conditions: cited from earlier work
T1 sequence (Q07869 1-468): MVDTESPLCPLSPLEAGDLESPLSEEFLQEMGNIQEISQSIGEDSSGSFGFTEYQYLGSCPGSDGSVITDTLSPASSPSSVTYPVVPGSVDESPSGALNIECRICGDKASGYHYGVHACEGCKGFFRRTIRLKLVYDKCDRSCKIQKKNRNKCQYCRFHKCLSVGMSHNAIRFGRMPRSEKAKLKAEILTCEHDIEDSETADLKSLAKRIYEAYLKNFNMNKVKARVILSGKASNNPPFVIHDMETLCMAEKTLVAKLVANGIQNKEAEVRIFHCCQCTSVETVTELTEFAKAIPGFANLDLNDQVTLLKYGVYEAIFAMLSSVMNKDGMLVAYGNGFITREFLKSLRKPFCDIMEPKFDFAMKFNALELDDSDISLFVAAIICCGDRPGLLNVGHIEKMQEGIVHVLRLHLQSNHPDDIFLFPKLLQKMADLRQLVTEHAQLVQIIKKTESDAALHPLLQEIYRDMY

Chicken meat = conditions: max 1.5% CLA in diet, Szymczyk 2001; cited from earlier work
egg yolk = conditions: cited from earlier work
yellow perch = conditions: max 0.6% CLA in diet, Twibell 2001; cited from earlier work
Carp = conditions: max 1% CLA in diet, Choi 1999; cited from earlier work
lean pork = conditions: cited from earlier work
striped bass = conditions: max 0.6% CLA in diet, Twibell 2000; cited from earlier work
PPAR gamma = biological target: T2, PPAR gamma (Homo sapiens, UniProt P37231); conditions: Houseknecht 1998, Yu 2002; cited from earlier work
T2 sequence (P37231 1-505): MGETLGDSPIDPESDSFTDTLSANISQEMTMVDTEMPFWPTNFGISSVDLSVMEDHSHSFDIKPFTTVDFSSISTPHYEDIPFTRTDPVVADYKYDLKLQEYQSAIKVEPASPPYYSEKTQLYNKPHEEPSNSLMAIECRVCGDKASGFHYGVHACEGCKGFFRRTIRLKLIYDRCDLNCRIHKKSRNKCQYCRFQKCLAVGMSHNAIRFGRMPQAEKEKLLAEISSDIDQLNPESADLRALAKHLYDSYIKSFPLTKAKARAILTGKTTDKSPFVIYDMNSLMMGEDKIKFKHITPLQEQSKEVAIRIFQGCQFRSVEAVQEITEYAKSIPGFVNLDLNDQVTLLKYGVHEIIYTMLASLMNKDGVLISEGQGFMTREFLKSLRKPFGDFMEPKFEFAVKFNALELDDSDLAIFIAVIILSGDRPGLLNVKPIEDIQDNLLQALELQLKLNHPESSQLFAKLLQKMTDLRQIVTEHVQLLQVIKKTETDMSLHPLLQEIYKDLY

Hybrid boars = experiment: Pork finishing trial with phytol sprayed feed; type: in vivo, pig
Description: (§1) In the present specification the level of the PPAR/RXR heterodimer activator is expressed as a percentage of total FAME fatty acids. These total FAME fatty acids comprise those fatty acids with a linear chain of at least 12 carbons and are measured by the so-called FAME technique, which is well known for the skilled person and wherein, first, fatty acid methyl esters are prepared which are, subsequently, analysed via gas chromatography. The FAME procedure used for determining the results obtained by the present invention was as follows. Lipids were extracted from the samples using a dissolving solution that is specific to each sample type. Nonadecanoic acid (19:0) was added as an internal standard. The two-step methylation procedure consisted of using a basic reagent NaOH/methanol followed by an acid reagent HCI/methanol. The fatty acid methyl esters (FAME) were analyzed by GC (HP 6890, Hewlett-Packard, Brussels, Belgium) using a CP-Sil88 column for FAME (100 m×250 μm×0.25 μm) (Chrompack, Middelburg, The Netherlands). The GC conditions were as adapted to each sample type. Peaks were identified by comparison of retention times with those of the corresponding standards (Sigma, Botnew, Belgium; Nu-Chek-Prep, Elysian, M N). Identification of the peaks included fatty acids between 12:0 and 22:6 and 5 different CLA isomers and phytanic acid and pristanic acid.
Hybrid boars weighing in at about 80 kg were kept lege artis and fed a standard finishing granulated feed sprayed on with phytol at a level of 2% of feed weight. The feed was formulated and produced by Schatteman in Wetteren, Belgium and contained on average about 7% of humidity. On spraying, the feed readily absorbed this oily substance. […] Tissue samples were taken and the carcass quality assessed. The carcasses were further butchered in the usual fashion to chops, loins, sausages and the like and the meat quality of the prime cuts was assessed.
The quality was assessed objectively using the following parameters: % meat on the carcass, type-index, meat class, meat moisture, meat color, meat temperature and meat pH change.

ISABROWN layers = experiment: Layer feeding trial with phytol supplemented feed; type: in vivo; conditions: 2% phytol in feed, compared with standard layer diet
[1] = test system: Tiger shrimp (Penaeus Monodon); experiment: Shrimp feeding trial with phytol supplemented diet; type: in vivo; conditions: 2% phytol diet, 4 weeks
ROSS 308 broiler chicks = experiment: Broiler feeding trial with phytol supplemented feed; type: in vivo, chicken; conditions: 42 days
Description: as §1
ROSS 308 broiler chicks were raised, lege artis, on an ad libitum diet, containing phytol at 2% by weight of feed that, characteristically, contains about 10% of humidity. The chicks consumed an average of about 0.1 kg dry weight of the feed per day. The phytol in the diet replaced 2% of the soybean oil included in feeds formulated based on the INVE Nutritional Requirement standard formula for a grower feed (formula 120). Please refer to the following tables for the feed formula and for its chemical composition.
The animals were slaughtered after 42 days and their tissues sampled for analysis.

laboratory animals = conditions: Steinberg 1966, cited from earlier work

CC(C)CCC[C@@H](C)CCC[C@@H](C)CCCC(C)CC(=O)O (some centres unmarked) [PhA, tetramethylhexadecanoic acid]
RXR ligand (RXR): ligand of RXR | PPAR alpha activation (PPAR alpha; physiologic concentrations, Ellinghaus 1999): potent activator of PPAR alpha

conjugated linoleic acid [CLA]
PPAR alpha agonism (PPAR alpha; Moya-Camarena 1999): agonist of PPAR alpha | max of TFA (maximum level of CLA in product as percent of total fatty acids) (Chicken meat): 10.27% | max of TFA (maximum level of CLA in product as percent of total fatty acids) (egg yolk; max 2% CLA in diet, Shafer 2001): 7.95% | max of TFA (maximum level of CLA in product as percent of total fatty acids) (egg yolk; max 3% CLA in diet, Raes 2002): 5.3% | max of TFA (maximum level of CLA in product as percent of total fatty acids) (egg yolk; max 5% CLA in diet, Chamruspollert 1999): 11.2% | max of TFA (maximum level of CLA in product as percent of total fatty acids) (yellow perch): 2.92% | max of TFA (maximum level of CLA in product as percent of total fatty acids) (Carp): 13% | max of TFA (maximum level of CLA in product as percent of total fatty acids) (lean pork; lean pork (>100 kg), max 1% CLA in diet, Thiel-Cooper 2001): 0.7% | max of TFA (maximum level of CLA in product as percent of total fatty acids) (lean pork; lean pork (>100 kg), max 5% CLA in diet, Joo 2002): 1.6% | max of TFA (maximum level of CLA in product as percent of total fatty acids) (lean pork; lean pork (up to 55 kg), max 1.4% CLA in diet, Ramsey 2001): 3.2% | max of TFA (maximum level of CLA in product as percent of total fatty acids) (striped bass): 8.1% | PPAR gamma agonism (PPAR gamma): agonist of PPAR gamma

C/C(=C\CO)CCC[C@H](C)CCC[C@H](C)CCCC(C)C [phytol]
sickness or death (Hybrid boars; 2% phytol feed, entire finishing period): no animals got sick or died | content of PhA and PrA in the pork meat (Hybrid boars; male, hybrid, pig, in vivo, 1 month): 2.3 % of total FAME fatty acids | feeding behavior or level of activity (Hybrid boars; pig, in vivo): no difference | mortality nor morbidity (ISABROWN layers): no difference | survival rate ([1]; vs standard diet): no difference | growth (weight at end of feeding trial) ([1]; start 0.7 g): 2.05 g | mortality or morbidity (ROSS 308 broiler chicks; 2% phytol in feed, compared with standard broiler feed): no difference | PhA average level in breast meat (ROSS 308 broiler chicks; ROSS 308, chicken, in vivo): 2.6 % of total fatty acids | content of PhA in the breast meat, one subgroup (ROSS 308 broiler chicks; ROSS 308, chicken, in vivo): around 1.9% | content of PhA in the breast meat, other subgroup (ROSS 308 broiler chicks; ROSS 308, chicken, in vivo): around 3.6% | morbidity (growth retardation, weight loss and lethargy) (laboratory animals; from levels of supplementation of 1% of diet weight on): substantial morbidity | mortality (laboratory animals; levels of 5% of diet weight): serious mortality rates
